Assay results as given in patent publication US20230227499A1, “PRODRUGS OF MITOCHONDRIA-TARGETING OLIGOPEPTIDES” (Stealth Biotherapeutics Inc., priority 2020, published 2023).
“Also recorded” adds a separate entry of the source.

Tests used:
[1] = system: isolated perfused guinea pig heart; experiment: Ischemia-reperfusion-induced myocardial stunning in isolated perfused guinea pig heart (Langendorff); details: for myocardial contractile force during ischemia-reperfusion / tolerance of ischemia versus buffer-treated hearts: SS-02 100 nM or SS-31 1 nM perfused 30 min; for myocardial contractile force during ischemia-reperfusion: 30-min global ischemia, then reperfusion (FIG. 2)
Method: Guinea pig hearts were rapidly isolated, and the aorta was cannulated in situ and perfused in a retrograde fashion with an oxygenated Krebs-Henseleit solution (pH 7.4) at 34° C. The heart was then excised, mounted on a modified Langendorff perfusion apparatus, and perfused at constant pressure (40 cm H20). Contractile force was measured with a small hook inserted into the apex of the left ventricle and the silk ligature tightly connected to a force-displacement transducer. Coronary flow was measured by timed collection of pulmonary artery effluent.
Hearts were perfused with buffer, 2′,6′-Dmt-D-Arg-PheLys-NH2 (SS-02) (100 nM) or D-Arg-Dmt-Lys-Phe-NH2 (SS-31) (1 nM) for 30 min and then subjected to 30 min of global ischemia Reperfusion was carried out with the same solution used prior to ischemia.

[2] = system: isolated mitochondria; experiment: Mitochondrial permeability transition (MPT) induced by Ca2+ in isolated mitochondria; details: pretreatment of isolated mitochondria with SS-31 10 μM (FIG. 1A)
Method: (§1) FIGS. 1A-1C depict that D-Arg-Dmt-Lys-Phe-NH2 (SS-31; MTP-131) inhibits mitochondrial swelling and cytochrome c release. […] Gray line, buffer; red line, SS-31. […] Swelling was measured by light scattering measured at 570 nm. FIG. 1 C depicts the comparison of SS-02 and SS-31 with cyclosporine (CsA) in inhibiting mitochondrial swelling and cytochrome c release induced by Ca2+. The amount of cytochrome c released was expressed as percent of total cytochrome c in mitochondria. Data are presented as mean±s.e., n=3.
(§2) MPT pore opening results in mitochondrial swelling. We examined the effects of (SS-31) on mitochondrial swelling, which was measured using light scattering monitored at 570 nm.

[3] = system: mitochondria; experiment: Mitochondrial swelling induced by Ca2+, light scattering at 570 nm; details: pretreatment with SS-31 50 μM, light scattering at 570 nm (FIG. 1B)
Method: as §1, §2

[4] = system: mitochondria; experiment: Cytochrome c release from mitochondria induced by Ca2+; details: FIG. 1C
Method: as §1, §2

[5] = 30 min global ischemia, then reperfusion

## 2′,6′-Dmt-D-Arg-PheLys-NH2 [SS-02]
[1]
  myocardial contractile force during ischemia-reperfusion: protects myocardial contractile force
[1]; [5]
  tolerance of ischemia versus buffer-treated hearts: tolerated ischemia much better than buffer-treated hearts

## Cc1cc(O)cc(C)c1C[C@H](CC(=O)[C@H](N)CCCNC(=N)N)C(=O)N[C@@H](CCCCN)C(=O)N[C@@H](Cc1ccccc1)C(N)=O [SS-31, D-Arg-Dmt-Lys-Phe-NH2]
[2]
  onset of MPT induced by Ca2+: has the same ability to protect against MPT; also recorded: prevents onset of MPT
[3]
  mitochondrial swelling induced by Ca2+: has the same ability to protect against; also recorded: inhibited mitochondrial swelling
[4]
  cytochrome c release induced by Ca2+: has the same ability to protect against
[1]
  myocardial contractile force during ischemia-reperfusion: protects myocardial contractile force
[1]; [5]
  tolerance of ischemia versus buffer-treated hearts: tolerated ischemia much better than buffer-treated hearts
[1]; SS-31 1 nM, 30 min global ischemia, then reperfusion
  inhibition of cardiac stunning: complete inhibition of cardiac stunning
[1]; SS-31 1 nM, ischemia-reperfusion
  heart rate: no decrease in heart rate
[1]; SS-31 1 nM, timed collection of pulmonary artery effluent
  coronary flow during reperfusion: well-sustained throughout reperfusion
